According to paper PMC9853848 (Journal of the American Chemical Society, 2022):
Like-named read-outs stand apart in the source and are kept apart here.

Legend:
P91 [1] = settings: P91-R2; 25 °C, pH 8.0; covalent intermediate
P91 [2] = target: T1, P91; format: biochemical, uncultured bacterium
T1 construct: full-length, N-terminal His6-tag, purified recombinant (E. coli); Cys118-His199-Asp167 triad

P91 [3] = system: T1, P91; format: biochemical, uncultured bacterium; settings: read-out: KM (μM) ^b

Compound	Km (P91 [1]) [µM]	Ki (P91 [2]) [µM]	Km (P91 [3]) [µM]
CCOP(=O)(OCC)Oc1ccc([N+](=O)[O-])cc1 [compound 2, paraoxon-ethyl]	290		
CCOP(=O)(OCC)Oc1ccc2c(c1)Oc1cc(OP(=O)(OCC)OCC)ccc1C21OC(=O)c2ccccc21 [compound 1, FDDEP]		290 ± 89	46 ± 9.7
